# Measured values as given in the supplement of paper PMC10307832.
# Legend:
# Experiment in all cases: relative viability (nuclei count vs DMSO), 5 days (fraction); higher = more cells survive
# Venetoclax + Phenformin = compound: CC1(C)CCC(CN2CCN(c3ccc(C(=O)NS(=O)(=O)c4ccc(NCC5CCOCC5)c([N+](=O)[O-])c4)c(Oc4cnc5[nH]ccc5c4)c3)CC2)=C(c2ccc(Cl)cc2)C1 [Venetoclax] + N=C(N)NC(=N)NCCc1ccccc1 [Phenformin] (partner 250 µM)
# Outline: (§1)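 Cells from lung cancer lines were seeded into 1536-well plates and, one day later, dosed by pin tool. Treatments were either a single drug or a fixed dose of an anchor drug with five library-drug doses (not always all listed) in √10 steps. After 5 days, nuclei were stained in a one-step fixation (final 0.05% Triton X-100, 1% formaldehyde, 1 ug/ml Hoechst) and counted on 4× images, and relative viability is the treated-to-vehicle nuclei ratio, as the median of duplicate plates.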
# Venetoclax + OSI-027 = compound: CC1(C)CCC(CN2CCN(c3ccc(C(=O)NS(=O)(=O)c4ccc(NCC5CCOCC5)c([N+](=O)[O-])c4)c(Oc4cnc5[nH]ccc5c4)c3)CC2)=C(c2ccc(Cl)cc2)C1 [Venetoclax] + COc1cccc2cc(-c3nc([C@H]4CC[C@H](C(=O)O)CC4)n4ncnc(N)c34)[nH]c12 [OSI-027] (partner 0.5 µM)
# Outline: as §1
# Selumetinib + Luminespib = compound: Cn1cnc2c(F)c(Nc3ccc(Br)cc3Cl)c(C(=O)NOCCO)cc21 [Selumetinib] + CCNC(=O)c1noc(-c2cc(C(C)C)c(O)cc2O)c1-c1ccc(CN2CCOCC2)cc1 [Luminespib] (partner 0.01 µM)
# Outline: as §1
# Venetoclax + Linsitinib = compound: CC1(C)CCC(CN2CCN(c3ccc(C(=O)NS(=O)(=O)c4ccc(NCC5CCOCC5)c([N+](=O)[O-])c4)c(Oc4cnc5[nH]ccc5c4)c3)CC2)=C(c2ccc(Cl)cc2)C1 [Venetoclax] + C[C@]1(O)C[C@@H](c2nc(-c3ccc4ccc(-c5ccccc5)nc4c3)c3c(N)nccn32)C1 [Linsitinib] (partner 1 µM)
# Outline: as §1
Cell Line,relative viability (Venetoclax + Phenformin; first compound 0.01 µM),relative viability (Venetoclax + Phenformin; first compound 0.03162 µM),relative viability (Venetoclax + Phenformin; first compound 0.1 µM),relative viability (Venetoclax + Phenformin; first compound 0.3162 µM),relative viability (Venetoclax + Phenformin; first compound 1 µM),relative viability (Venetoclax + OSI-027; first compound 0.01 µM),relative viability (Venetoclax + OSI-027; first compound 0.03162 µM),relative viability (Venetoclax + OSI-027; first compound 0.1 µM),relative viability (Venetoclax + OSI-027; first compound 0.3162 µM),relative viability (Venetoclax + OSI-027; first compound 1 µM),relative viability (Selumetinib + Luminespib; first compound 0.02 µM),relative viability (Selumetinib + Luminespib; first compound 0.06325 µM),relative viability (Selumetinib + Luminespib; first compound 0.2 µM),relative viability (Selumetinib + Luminespib; first compound 0.6325 µM),relative viability (Venetoclax + Linsitinib; first compound 0.03162 µM),relative viability (Venetoclax + Linsitinib; first compound 0.1 µM),relative viability (Venetoclax + Linsitinib; first compound 0.3162 µM),relative viability (Venetoclax + Linsitinib; first compound 1 µM),relative viability (Venetoclax + Linsitinib; first compound 0.01 µM)
LCLC-97TM1,0.463,0.494,0.461,0.449,0.385,0.519,0.704,0.556,0.478,0.465,0.79,0.622,0.415,0.411,0.197,0.158,0.182,0.198,–
NCI-H1299,–,–,–,–,–,–,–,–,–,–,–,–,–,–,1.02,1.06,0.926,0.936,0.987
NCI-H1563,0.728,0.649,0.662,0.701,0.659,0.836,0.776,0.747,0.773,0.707,0.507,0.499,0.527,0.52,1.29,1.28,1.4,1.24,1.16
HCC-827,0.473,0.497,0.344,0.406,0.394,0.799,0.839,0.776,0.733,0.755,0.621,0.694,0.438,0.244,0.973,1,0.978,0.87,0.997
NCI-H1651,0.373,0.327,0.287,0.329,0.342,0.804,0.714,0.62,0.596,0.658,0.757,0.828,0.835,0.615,1.13,0.938,0.962,0.995,0.926
HCC-366,0.553,0.613,0.578,0.574,0.545,0.873,0.958,0.628,0.95,0.573,–,–,–,–,0.657,0.605,0.779,0.549,0.659
EKVX,0.229,0.236,0.223,0.239,0.233,0.668,0.731,0.646,0.76,0.63,0.931,0.587,0.657,0.665,0.976,0.88,1.03,0.844,0.909
NCI-H2228,0.366,0.322,0.234,0.422,0.408,0.423,0.545,0.62,0.546,0.396,0.154,0.14,0.125,0.193,0.754,0.631,0.724,0.625,0.717
LK-2,0.479,0.605,0.491,0.617,0.357,0.317,0.204,0.22,0.22,0.161,0.151,0.136,0.19,0.165,0.621,0.516,0.548,0.551,0.727
NCI-H1650,0.515,0.479,0.541,0.534,0.377,0.531,0.856,0.606,0.783,0.529,0.194,0.2,0.198,0.202,–,–,–,–,–
